Results: patent US20220295782A1, “METHOD FOR PRODUCING FROZEN BODY OF THREE-DIMENSIONAL TISSUE AGGREGATE OF RETINAL PIGMENT EPITHELIAL CELLS” (NICHIREI BIOSCIENCE INC., priority 2019, published 2022)
Read-outs that look alike come from different tables or passages of the source.

System: RPE cells
Description: RPE cells (manufactured by Lonza K.K., 00194987) were seeded on a 96-well plate (Falcon, 353072) at 3.3×10^4 cells/well, and cultured in a maintenance medium (350 mL of DMEM (Sigma, D6046), 150 mL of F12 HAM (Sigma, N6658), 10 mL of B27 (Invitrogen, 17504-044), 5 mL of 200 mM L-glutamine (Sigma, G7513), 10 ng/mL of bFGF (Wako, 060-04543), […] of SB431542 hydrate (Sigma, S4317)) until the cells reached confluent. The cultured cells were washed with PBS(−) at room temperature, and then exposed to a pretreatment solution for 10 minutes or 30 minutes.
As the pretreatment solutions, solutions having EG concentrations of 10 (v/v) %, 12.5 (v/v) %, 15 (v/v) %, 17.5 (v/v) % and 20 (v/v) % were used. As the solvent of the pretreatment solution, a Dulbecco's modified Eagle's medium (DMEM) supplemented with 2 mM L-glutamine or PBS(−) was used.

For OCCO [EG, ethylene glycol], the “initial toxicity (metabolic activity of cells, MTS assay)” value (0 hours of culture time, EG 10-20 (v/v) % in DMEM supplemented with 2 mM L-glutamine, exposure 10 minutes) was “increased in a concentration-dependent manner from the EG concentration of 12.5 (v/v) %”, the “time to recovery of metabolic activity” value (30-minute exposure versus 10-minute exposure) was “longer time to recovery is required” and the “cytotoxicity (MTS assay)” value (30 minutes of exposure time to the pretreatment solution) was “same tendency of cytotoxicity as in the results of FIG. 1”. For the same molecule, the “cytotoxicity (MTS assay)” value (PBS(-) used as the solvent) was “the same tendency as when the DMEM medium supplemented with glutamine was used” and the “culture time in which recovery of metabolic activity is possible” value (up to EG concentration of 17.5 (v/v) %, DMEM with glutamine, exposure 10 minutes) was “about 24 hours”.
